The NIST ThermoML archive (doi:10.1021/je050050p)

Experiment: xn = mol fraction of the nth substance listed
Details: Liquid, Vibrating tube method

CN(C)C=O [dimethylformamide] + O=C=O
Details	mass density [kg/m3]
333 K, 18021 kPa, x2 = 0.4502	942.21
333 K, 19006 kPa, x2 = 0.4502	943.4
333 K, 19008 kPa, x2 = 0.4068	942.75
333 K, 20008 kPa, x2 = 0.4068	943.81
333 K, 20021 kPa, x2 = 0.4502	944.58
333 K, 20981 kPa, x2 = 0.4068	944.88
333 K, 21001 kPa, x2 = 0.4502	945.74
333 K, 22001 kPa, x2 = 0.4068	945.96
333 K, 22027 kPa, x2 = 0.4502	946.9
333 K, 22996 kPa, x2 = 0.4068	947.02
333 K, 23019 kPa, x2 = 0.4502	948.04
333 K, 24013 kPa, x2 = 0.4068	948.07
333 K, 24013 kPa, x2 = 0.4502	949.18
333 K, 25001 kPa, x2 = 0.4068	949.09
333 K, 25015 kPa, x2 = 0.4502	950.28
342.89 K, 10992 kPa, x2 = 0.6235	886.15
342.89 K, 12012 kPa, x2 = 0.6235	889.74
342.89 K, 13020 kPa, x2 = 0.6235	893.05
342.89 K, 14010 kPa, x2 = 0.6235	896.16
342.89 K, 15018 kPa, x2 = 0.6235	899.25
342.89 K, 16005 kPa, x2 = 0.6235	902.14
342.89 K, 17023 kPa, x2 = 0.6235	905.02
342.89 K, 18015 kPa, x2 = 0.6235	907.74
342.89 K, 19032 kPa, x2 = 0.6235	910.42
342.89 K, 20044 kPa, x2 = 0.6235	913.05
342.89 K, 21008 kPa, x2 = 0.6235	915.46
342.89 K, 21997 kPa, x2 = 0.6235	917.87
342.89 K, 23022 kPa, x2 = 0.6235	920.31
342.89 K, 24005 kPa, x2 = 0.6235	922.57
342.89 K, 25050 kPa, x2 = 0.6235	924.92
342.92 K, 9047 kPa, x2 = 0.4268	916.56
342.92 K, 10045 kPa, x2 = 0.4268	917.97
342.92 K, 11042 kPa, x2 = 0.4268	919.28
342.92 K, 12037 kPa, x2 = 0.4268	920.66
342.92 K, 13020 kPa, x2 = 0.4268	921.93
342.92 K, 13997 kPa, x2 = 0.4268	923.27
342.92 K, 14981 kPa, x2 = 0.4268	924.53
342.92 K, 15034 kPa, x2 = 0.9311	711.76
342.92 K, 15061 kPa, x2 = 0.8091	832.64
342.92 K, 15988 kPa, x2 = 0.8091	839.54
342.92 K, 15991 kPa, x2 = 0.4268	925.79
342.92 K, 16002 kPa, x2 = 0.9311	729.81
342.92 K, 17002 kPa, x2 = 0.4268	927.11
342.92 K, 17015 kPa, x2 = 0.9311	745.62
342.92 K, 17027 kPa, x2 = 0.8091	845.55
342.92 K, 18016 kPa, x2 = 0.8091	851.1
342.92 K, 18024 kPa, x2 = 0.9311	759.3
342.92 K, 18025 kPa, x2 = 0.4268	928.36
342.92 K, 19002 kPa, x2 = 0.9311	770.95
342.92 K, 19028 kPa, x2 = 0.8091	856.53
342.92 K, 19044 kPa, x2 = 0.4268	929.6
342.92 K, 19999 kPa, x2 = 0.4268	930.83
342.92 K, 20000 kPa, x2 = 0.9311	781.74
342.92 K, 20057 kPa, x2 = 0.8091	861.77
342.92 K, 20984 kPa, x2 = 0.4268	931.96
342.92 K, 21012 kPa, x2 = 0.8091	866.52
342.92 K, 21034 kPa, x2 = 0.9311	791.87
342.92 K, 21992 kPa, x2 = 0.8091	871.08
342.92 K, 22002 kPa, x2 = 0.4268	933.2
342.92 K, 22002 kPa, x2 = 0.9311	800.53
342.92 K, 22999 kPa, x2 = 0.8091	875.54
342.92 K, 23014 kPa, x2 = 0.9311	809.02
342.92 K, 23042 kPa, x2 = 0.4268	934.44
342.92 K, 23981 kPa, x2 = 0.4268	935.53
342.92 K, 24017 kPa, x2 = 0.9311	816.82
342.92 K, 24029 kPa, x2 = 0.8091	879.9
342.92 K, 25008 kPa, x2 = 0.9311	824.06
342.92 K, 25020 kPa, x2 = 0.8091	883.99
342.92 K, 25047 kPa, x2 = 0.4268	936.75
342.93 K, 7012 kPa, x2 = 0.2876	914.85
342.93 K, 7999 kPa, x2 = 0.2876	915.95
342.93 K, 9007 kPa, x2 = 0.2876	917.04
342.93 K, 10005 kPa, x2 = 0.2876	918.13
342.93 K, 11003 kPa, x2 = 0.2876	919.16
342.93 K, 12011 kPa, x2 = 0.2876	920.23
342.93 K, 13016 kPa, x2 = 0.2876	921.27
342.93 K, 14012 kPa, x2 = 0.2876	922.31
342.93 K, 15013 kPa, x2 = 0.2876	923.35
342.93 K, 16000 kPa, x2 = 0.2876	924.33
342.93 K, 17024 kPa, x2 = 0.2876	925.34
342.93 K, 18001 kPa, x2 = 0.2876	926.31
342.93 K, 19036 kPa, x2 = 0.2876	927.32
342.93 K, 20015 kPa, x2 = 0.2876	928.27
342.93 K, 21009 kPa, x2 = 0.2876	929.23
